The text below walks through data of the supplement of paper PMC10307832.

The first assay concerns NCI-H2126. Put plainly: relative viability (nuclei count vs DMSO), 5 days (fraction); higher = more cells survive. Conditions: first compound 8 µM. Summed up: (§1)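 Cells from lung cancer lines were seeded into 1536-well plates and, one day later, dosed by pin tool. Treatments were either a single drug or a fixed dose of an anchor drug with five library-drug doses (not always all listed) in √10 steps. After 5 days, nuclei were stained in a one-step fixation (final 0.05% Triton X-100, 1% formaldehyde, 1 ug/ml Hoechst) and counted on 4× images, and relative viability is the treated-to-vehicle nuclei ratio, as the median of duplicate plates.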
As to `C=C1C(=O)O[C@@H](CCCCCCCC)[C@@H]1C(=O)O` [C-75] + CC(=O)c1c(C)c2cnc(Nc3ccc(N4CCNCC4)cn3)nc2n(C2CCCC2)c1=O [Palbociclib] (partner 0.5 µM), the relative viability came to 0.339.

The next assay has as its system NCI-H2342. The description is as above. The note with it: first compound 0.08 µM. Summed up:
as §1
For `Oc1nc(-c2ccc(C(F)(F)F)cc2)nc2c1CSCC2` [XAV939] + O=C(CCCCCCC(=O)Nc1ccccc1)NO [Vorinostat] (partner 1 µM), the relative viability was 0.791.
Same read-out and setting: in the case of `C=C1C(=O)O[C@@H](CCCCCCCC)[C@@H]1C(=O)O` [C-75] + Nc1nc2[nH]cc(CCc3ccc(C(=O)N[C@@H](CCC(=O)O)C(=O)O)cc3)c2c(=O)[nH]1 [Pemetrexed] (partner 0.2 µM) it was 0.815.
The same measure, in the same setting: in the case of `Oc1nc(-c2ccc(C(F)(F)F)cc2)nc2c1CSCC2` [XAV939] + O=C(c1cc(Cc2n[nH]c(=O)c3ccccc23)ccc1F)N1CCN(C(=O)C2CC2)CC1 [Olaparib] (partner 8 µM) it was 0.47; in that of `Oc1nc(-c2ccc(C(F)(F)F)cc2)nc2c1CSCC2` [XAV939] + CC(=O)c1c(C)c2cnc(Nc3ccc(N4CCNCC4)cn3)nc2n(C2CCCC2)c1=O [Palbociclib] (partner 0.5 µM), 0.555; in that of `C=C1C(=O)O[C@@H](CCCCCCCC)[C@@H]1C(=O)O` [C-75] + CC(=O)c1c(C)c2cnc(Nc3ccc(N4CCNCC4)cn3)nc2n(C2CCCC2)c1=O [Palbociclib] (partner 0.5 µM), 0.546.

The assay is the same for the next values; noted with them: first compound 0.253 µM.
Turning to `Oc1nc(-c2ccc(C(F)(F)F)cc2)nc2c1CSCC2` [XAV939] + O=C(CCCCCCC(=O)Nc1ccccc1)NO [Vorinostat] (partner 1 µM), the relative viability came out at 0.705.
Same read-out and setting: in the case of `C=C1C(=O)O[C@@H](CCCCCCCC)[C@@H]1C(=O)O` [C-75] + Nc1nc2[nH]cc(CCc3ccc(C(=O)N[C@@H](CCC(=O)O)C(=O)O)cc3)c2c(=O)[nH]1 [Pemetrexed] (partner 0.2 µM) it was 0.771; in that of `Oc1nc(-c2ccc(C(F)(F)F)cc2)nc2c1CSCC2` [XAV939] + O=C(c1cc(Cc2n[nH]c(=O)c3ccccc23)ccc1F)N1CCN(C(=O)C2CC2)CC1 [Olaparib] (partner 8 µM), 0.431.
The same measure, in the same setting: in the case of `Oc1nc(-c2ccc(C(F)(F)F)cc2)nc2c1CSCC2` [XAV939] + CC(=O)c1c(C)c2cnc(Nc3ccc(N4CCNCC4)cn3)nc2n(C2CCCC2)c1=O [Palbociclib] (partner 0.5 µM) it was 0.464.
Still for that read-out and setting: in the case of `C=C1C(=O)O[C@@H](CCCCCCCC)[C@@H]1C(=O)O` [C-75] + CC(=O)c1c(C)c2cnc(Nc3ccc(N4CCNCC4)cn3)nc2n(C2CCCC2)c1=O [Palbociclib] (partner 0.5 µM) it was 0.488.

Staying with this assay, now noted: first compound 0.8 µM.
The molecule `Oc1nc(-c2ccc(C(F)(F)F)cc2)nc2c1CSCC2` [XAV939] + O=C(CCCCCCC(=O)Nc1ccccc1)NO [Vorinostat] (partner 1 µM) showed a relative viability of 0.768.
Still for that read-out and setting: in the case of `C=C1C(=O)O[C@@H](CCCCCCCC)[C@@H]1C(=O)O` [C-75] + Nc1nc2[nH]cc(CCc3ccc(C(=O)N[C@@H](CCC(=O)O)C(=O)O)cc3)c2c(=O)[nH]1 [Pemetrexed] (partner 0.2 µM) it was 0.693; in that of `Oc1nc(-c2ccc(C(F)(F)F)cc2)nc2c1CSCC2` [XAV939] + O=C(c1cc(Cc2n[nH]c(=O)c3ccccc23)ccc1F)N1CCN(C(=O)C2CC2)CC1 [Olaparib] (partner 8 µM), 0.376.
Regarding `Oc1nc(-c2ccc(C(F)(F)F)cc2)nc2c1CSCC2` [XAV939] + CC(=O)c1c(C)c2cnc(Nc3ccc(N4CCNCC4)cn3)nc2n(C2CCCC2)c1=O [Palbociclib] (partner 0.5 µM), the relative viability came to 0.468.
Same read-out and setting: in the case of `C=C1C(=O)O[C@@H](CCCCCCCC)[C@@H]1C(=O)O` [C-75] + CC(=O)c1c(C)c2cnc(Nc3ccc(N4CCNCC4)cn3)nc2n(C2CCCC2)c1=O [Palbociclib] (partner 0.5 µM) it was 0.551.

Staying with this assay, now noted: first compound 2.53 µM.
In turn, `Oc1nc(-c2ccc(C(F)(F)F)cc2)nc2c1CSCC2` [XAV939] + O=C(CCCCCCC(=O)Nc1ccccc1)NO [Vorinostat] (partner 1 µM) returned a relative viability of 0.533.
On the same count and under the same terms, in the case of `C=C1C(=O)O[C@@H](CCCCCCCC)[C@@H]1C(=O)O` [C-75] + Nc1nc2[nH]cc(CCc3ccc(C(=O)N[C@@H](CCC(=O)O)C(=O)O)cc3)c2c(=O)[nH]1 [Pemetrexed] (partner 0.2 µM) it was 0.62.
The molecule `Oc1nc(-c2ccc(C(F)(F)F)cc2)nc2c1CSCC2` [XAV939] + O=C(c1cc(Cc2n[nH]c(=O)c3ccccc23)ccc1F)N1CCN(C(=O)C2CC2)CC1 [Olaparib] (partner 8 µM) registered a relative viability of 0.288.
The same measure, in the same setting: in the case of `Oc1nc(-c2ccc(C(F)(F)F)cc2)nc2c1CSCC2` [XAV939] + CC(=O)c1c(C)c2cnc(Nc3ccc(N4CCNCC4)cn3)nc2n(C2CCCC2)c1=O [Palbociclib] (partner 0.5 µM) it was 0.467; in that of `C=C1C(=O)O[C@@H](CCCCCCCC)[C@@H]1C(=O)O` [C-75] + CC(=O)c1c(C)c2cnc(Nc3ccc(N4CCNCC4)cn3)nc2n(C2CCCC2)c1=O [Palbociclib] (partner 0.5 µM), 0.541.

Staying with this assay, now noted: first compound 8 µM.
Molecule `C=C1C(=O)O[C@@H](CCCCCCCC)[C@@H]1C(=O)O` [C-75] + Nc1nc2[nH]cc(CCc3ccc(C(=O)N[C@@H](CCC(=O)O)C(=O)O)cc3)c2c(=O)[nH]1 [Pemetrexed] (partner 0.2 µM) displayed a relative viability of 0.766.
On the same count and under the same terms, in the case of `C=C1C(=O)O[C@@H](CCCCCCCC)[C@@H]1C(=O)O` [C-75] + CC(=O)c1c(C)c2cnc(Nc3ccc(N4CCNCC4)cn3)nc2n(C2CCCC2)c1=O [Palbociclib] (partner 0.5 µM) it was 0.571.

In a further assay the test system is NCI-H3122. Described as above. Conditions: first compound 0.08 µM. Summed up: as §1
In turn, `Oc1nc(-c2ccc(C(F)(F)F)cc2)nc2c1CSCC2` [XAV939] + O=C(CCCCCCC(=O)Nc1ccccc1)NO [Vorinostat] (partner 1 µM) displayed a relative viability of 1.03.
Still for that read-out and setting: in the case of `C=C1C(=O)O[C@@H](CCCCCCCC)[C@@H]1C(=O)O` [C-75] + Nc1nc2[nH]cc(CCc3ccc(C(=O)N[C@@H](CCC(=O)O)C(=O)O)cc3)c2c(=O)[nH]1 [Pemetrexed] (partner 0.2 µM) it was 0.2.
Same read-out and setting: in the case of `Oc1nc(-c2ccc(C(F)(F)F)cc2)nc2c1CSCC2` [XAV939] + O=C(c1cc(Cc2n[nH]c(=O)c3ccccc23)ccc1F)N1CCN(C(=O)C2CC2)CC1 [Olaparib] (partner 8 µM) it was 0.706; in that of `Oc1nc(-c2ccc(C(F)(F)F)cc2)nc2c1CSCC2` [XAV939] + CC(=O)c1c(C)c2cnc(Nc3ccc(N4CCNCC4)cn3)nc2n(C2CCCC2)c1=O [Palbociclib] (partner 0.5 µM), 0.2.
Consider `C=C1C(=O)O[C@@H](CCCCCCCC)[C@@H]1C(=O)O` [C-75] + CC(=O)c1c(C)c2cnc(Nc3ccc(N4CCNCC4)cn3)nc2n(C2CCCC2)c1=O [Palbociclib] (partner 0.5 µM), for which the relative viability was 0.18.

The same assay, now with this note: first compound 0.253 µM.
The molecule `Oc1nc(-c2ccc(C(F)(F)F)cc2)nc2c1CSCC2` [XAV939] + O=C(CCCCCCC(=O)Nc1ccccc1)NO [Vorinostat] (partner 1 µM) returned a relative viability of 0.401.
Still for that read-out and setting: in the case of `C=C1C(=O)O[C@@H](CCCCCCCC)[C@@H]1C(=O)O` [C-75] + Nc1nc2[nH]cc(CCc3ccc(C(=O)N[C@@H](CCC(=O)O)C(=O)O)cc3)c2c(=O)[nH]1 [Pemetrexed] (partner 0.2 µM) it was 0.208; in that of `Oc1nc(-c2ccc(C(F)(F)F)cc2)nc2c1CSCC2` [XAV939] + O=C(c1cc(Cc2n[nH]c(=O)c3ccccc23)ccc1F)N1CCN(C(=O)C2CC2)CC1 [Olaparib] (partner 8 µM), 0.574.
